Test results reported in patent publication US10689343B2, “Inhibitors of tryptophan 2,3-dioxygenase” (NETHERLANDS TRANSLATIONAL RESEARCH CENTER B.V., priority 2016, dated 2020).
Several values for one entry are separate records, joined by “and”; a condition that tells them apart may be missing. Identical values can stand only once. Like-named read-outs stand apart in the source and are kept apart here.

How the values were obtained:
Recombinant TDO = target: T1, Recombinant TDO (Homo sapiens, UniProt P48775); assay: Biochemical assay for TDO (NFK GreenScreen); settings: 50 nM TDO, 200 μM L-tryptophan
T1 construct: Recombinant TDO (Seegers, N., et al.) and all other assay components were diluted in TDO reaction buffer
T1 sequence (P48775 whole entry): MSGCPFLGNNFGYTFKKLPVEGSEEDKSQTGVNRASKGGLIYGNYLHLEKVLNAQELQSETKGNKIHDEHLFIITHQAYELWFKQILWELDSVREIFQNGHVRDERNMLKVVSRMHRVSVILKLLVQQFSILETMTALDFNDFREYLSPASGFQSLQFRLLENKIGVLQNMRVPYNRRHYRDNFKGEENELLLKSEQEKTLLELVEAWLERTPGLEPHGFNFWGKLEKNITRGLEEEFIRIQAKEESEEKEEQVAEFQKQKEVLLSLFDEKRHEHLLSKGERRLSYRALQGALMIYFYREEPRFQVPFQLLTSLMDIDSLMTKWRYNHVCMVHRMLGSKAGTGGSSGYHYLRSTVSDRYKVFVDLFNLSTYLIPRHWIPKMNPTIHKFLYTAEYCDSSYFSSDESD
How it was run: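 Recombinant human TDO (50 nM) preincubated with compound 60 min at room temperature in 100 mM NaH2PO4 pH 7.0, 0.02% Tween-20, with ascorbic acid. Reaction then run 15 min with 200 μM L-tryptophan (final), 0.3% DMSO. NFK product detected by NFK Green fluorescence after 3 h at 37° C; IC50 derived.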

CYP3A4 = CYP3A4 (Homo sapiens, UniProt P08684); assay: P450-Glo CYP3A4 luciferin isopropylacetal (Luc-IP) assay
Chain of CYP3A4 (P08684 whole entry): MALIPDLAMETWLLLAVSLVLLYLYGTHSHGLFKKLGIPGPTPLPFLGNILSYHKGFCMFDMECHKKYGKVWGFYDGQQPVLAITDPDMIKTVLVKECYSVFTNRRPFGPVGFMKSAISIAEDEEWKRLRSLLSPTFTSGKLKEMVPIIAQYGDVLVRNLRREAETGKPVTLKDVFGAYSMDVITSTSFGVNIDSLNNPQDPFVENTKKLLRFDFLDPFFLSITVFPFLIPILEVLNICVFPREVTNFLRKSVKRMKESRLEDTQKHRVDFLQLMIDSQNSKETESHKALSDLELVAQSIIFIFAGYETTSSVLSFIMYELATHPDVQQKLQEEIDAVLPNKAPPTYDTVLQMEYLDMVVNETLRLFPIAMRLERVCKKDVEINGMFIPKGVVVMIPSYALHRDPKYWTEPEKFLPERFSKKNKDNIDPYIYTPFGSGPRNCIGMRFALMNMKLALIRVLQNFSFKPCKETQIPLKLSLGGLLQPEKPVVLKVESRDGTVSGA
Description: To determine the inhibitory potency of compounds on CYP3A4 enzyme, the P450-Glo CYP3A4 luciferin isopropylacetal (Luc-IP) assay was used (Promega, Madison, Wis., USA, Cat. No. V9920). The assay makes use of a luminogenic isopropylacetal (IPA) substrate that is a derivative from beetle luciferin, a substrate of luciferase enzymes. The IPA substrate is converted by CYP3A4 to luciferin, which in turn reacts with luciferase to produce an amount of light that is directly proportional to the activity of CYP3A4. Compounds were serially diluted in DMSO and finally in 400 mM K2HPO4, pH 7.4. 5 μl of compound solution and 5 μl of CYP3A4/substrate solution were combined in the well of a white 384-well Optiplate (Perkin Elmer). The DMSO concentration in the assay was 0.1%. After incubation for 10 minutes at room temperature in the dark, 10 μl of NADPH regeneration system was added and incubation was continued for 10 min. Then, 20 μl of Luciferin Detection Reagent was added to stop the reaction, and incubation was continued for another 20 min. Luminescence was measured on an Envision multimode reader and IC50 values were calculated using XLfit™. […] Instead of in a 96-well plate, the assay was performed in 384-well white Perkin Elmer Optiplate (cat. no. 6007290).

CYP2D6 = CYP2D6 (Homo sapiens, UniProt P10635); assay: P450-Glo CYP2D6 Luc-IP assay
Chain of CYP2D6 (P10635 whole entry): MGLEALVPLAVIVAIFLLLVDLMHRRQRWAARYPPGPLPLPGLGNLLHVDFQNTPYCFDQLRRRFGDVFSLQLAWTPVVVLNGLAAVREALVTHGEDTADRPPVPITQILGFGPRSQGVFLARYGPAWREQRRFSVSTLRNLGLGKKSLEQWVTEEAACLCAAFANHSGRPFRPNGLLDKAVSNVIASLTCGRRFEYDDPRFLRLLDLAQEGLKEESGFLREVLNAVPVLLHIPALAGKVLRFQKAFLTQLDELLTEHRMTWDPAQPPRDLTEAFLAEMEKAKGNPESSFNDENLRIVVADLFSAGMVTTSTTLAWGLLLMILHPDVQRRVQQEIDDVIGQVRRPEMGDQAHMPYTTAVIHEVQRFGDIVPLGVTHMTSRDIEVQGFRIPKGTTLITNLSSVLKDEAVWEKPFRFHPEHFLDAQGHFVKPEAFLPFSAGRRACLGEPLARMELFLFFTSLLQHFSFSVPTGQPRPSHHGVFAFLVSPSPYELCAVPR

[1] = target: T2, TDO in SW48 colorectal carcinoma cells (Homo sapiens, UniProt P48775); assay: Cell-based assay for TDO in SW48 colorectal carcinoma cells (NFK GreenScreen); settings: 18 hours with L-tryptophan
T2 construct: Endogenous expression of TDO has been determined in a variety of cancer cell lines; host or cells: SW48 colorectal carcinoma cells
T2 sequence (P48775 whole entry): as the sequence (P48775 whole entry) above
Description: The biological activity of TDO inhibitors can be measured by applying above detection methods to cells that are treated with test compound. Endogenous expression of TDO has been determined in a variety of cancer cell lines (Pilotte et al.; Seegers, et al.), or TDO can be expressed in cells that lack endogenous TDO by transfection of an expression vector containing TDO cDNA. […] A preferred assay is the cell-based NFK GreenScreen™ assay (Seegers et al, supra), which measures the cellular inhibitory activity of compounds on TDO. […] No. V9920). Cell-Based Assay for TDO The NFK GreenScreen™ assay technology was also used to determine the inhibitory activity of compounds on TDO in SW48 colorectal carcinoma cells (Seegers, N., et al., J. Biol. Screen. 19: 1266; 2014). […] Compounds were dissolved in DMSO and diluted in RPMI 1640. Final DMSO concentration in the assay was 0.4% (v/v). Eight thousand cells per well in 40 μl were seeded in a black 384-well tissue plate (cat. No. 781086; […] To determine NFK levels, 12 μl NFK Green™ (NTRC, Oss, The Netherlands) was added to each well, and the plate was sealed and incubated for 4 hours at 37° C. Fluorescence was measured on an EnVision multimode reader (Perkin Elmer, Waltham, Mass., USA).

**Q.** What does the source list for `O=C(Nc1ccc(-c2c[nH]c3cc(F)ccc23)cc1)C1[C@H]2COC[C@@H]12` (stereo partly drawn) [Example 100, (1R,5S)—N-[4-(6-fluoro-1H-indol-3-yl)phenyl]-3-oxabicyclo[3.1.0]hexane-6-carboxamide]?
**A.** IC50 (Recombinant TDO): 1000 to 5000 nM; IC50 (CYP3A4): > 10000 nM; IC50 (CYP2D6): > 10000 nM; IC50 ([1]; read-out: IC50 on TDO in cells): ≤ 500 nM and 200 to 500 nM

**Q.** `CN1CCN(CCCNC(=O)c2ccc(-c3c[nH]c4cc(F)ccc34)cc2)CC1` [Example 135, 4-(6-Fluoro-1H-indol-3-yl)-N-[3-(4-methylpiperazin-1-yl)propyl]benzamide] was tested. Which IC50 (Recombinant TDO) did it give?
**A.** < 1000 nM

**Q.** And the IC50 (CYP3A4)?
**A.** 5000 to 10000 nM

**Q.** What about the IC50 (CYP2D6) of the same compound?
**A.** > 10000 nM

**Q.** What about the IC50 ([1]; read-out: IC50 on TDO in cells) of the same compound?
**A.** ≤ 200 nM

**Q.** What does the source list for `CC(CN(C)C)NC(=O)c1ccc(-c2c[nH]c3cc(F)ccc23)cc1Cl` (stereo not shown) [Example 82, 2-Chloro-N-[2-(dimethylamino)-1-methyl-ethyl]-4-(6-fluoro-1H-indol-3-yl)benzamide]?
**A.** IC50 (Recombinant TDO): < 1000 nM; IC50 (CYP3A4): 5000 to 10000 nM; IC50 (CYP2D6): > 10000 nM; IC50 ([1]; read-out: IC50 on TDO in cells): ≤ 200 nM

**Q.** What does the source list for `COCC(=O)Nc1ccc(-c2c[nH]c3cc(F)ccc23)cc1` [Example 27, N-[4-(6-fluoro-1H-indol-3-yl)phenyl]-2-methoxy-acetamide]?
**A.** IC50 (Recombinant TDO): < 1000 nM; IC50 (CYP3A4): > 10000 nM; IC50 (CYP2D6): > 10000 nM; IC50 ([1]; read-out: IC50 on TDO in cells): ≤ 500 nM and 200 to 500 nM

**Q.** What does the source list for `C[C@H](CO)NC(=O)c1ccc(-c2c[nH]c3cc(F)ccc23)cc1` [Example 14, 4-(6-fluoro-1H-indol-3-yl)-N-[(1R)-2-hydroxy-1-methyl-ethyl]benzamide]?
**A.** IC50 (Recombinant TDO): < 1000 nM; IC50 (CYP3A4): > 10000 nM; IC50 (CYP2D6): 5000 to 10000 nM; IC50 ([1]; IC50 on TDO in cells): ≤ 500 nM and 200 to 500 nM

**Q.** What does the source list for `O=C(N[C@H]1CCCNC1)c1ccc(-c2c[nH]c3cc(F)ccc23)cc1` [Example 19, 4-(6-Fluoro-1H-indol-3-yl)-N-[(3S)-3-piperidyl]benzamide]?
**A.** IC50 (Recombinant TDO): < 1000 nM; IC50 (CYP3A4): > 10000 nM; IC50 (CYP2D6): > 10000 nM; IC50 ([1]; read-out: IC50 on TDO in cells): ≤ 200 nM

**Q.** With `COC[C@@H](C)NC(=O)c1ccc(-c2c[nH]c3cc(F)ccc23)cc1` [Example 17, 4-(6-Fluoro-1H-indol-3-yl)-N-[(1R)-2-methoxy-1-methyl-ethyl]benzamide] as the compound, how does the IC50 (Recombinant TDO) read?
**A.** < 1000 nM

**Q.** What about the IC50 (CYP3A4) of the same compound?
**A.** > 10000 nM

**Q.** And the IC50 (CYP2D6)?
**A.** > 10000 nM

**Q.** What about the IC50 ([1]; read-out: IC50 on TDO in cells) of the same compound?
**A.** ≤ 500 nM and 200 to 500 nM

**Q.** For `O=C(N[C@H]1CCCNC1)c1c(F)cc(-c2c[nH]c3cc(F)ccc23)cc1F` [Example 58, 2,6-Difluoro-4-(6-fluoro-1H-indol-3-yl)-N-[(3S)-3-piperidyl]benzamide], which IC50 (Recombinant TDO) is on record?
**A.** < 1000 nM

**Q.** What about the IC50 (CYP3A4) of the same compound?
**A.** > 10000 nM

**Q.** What about the IC50 (CYP2D6) of the same compound?
**A.** > 10000 nM

**Q.** What about the IC50 ([1]; read-out: IC50 on TDO in cells) of the same compound?
**A.** ≤ 200 nM

**Q.** For `O=C(NCC(F)(F)F)c1ccc(-c2c[nH]c3cc(F)ccc23)cc1Cl` [Example 53, 2-Chloro-4-(6-fluoro-1H-indol-3-yl)-N-(2,2,2-trifluoroethyl)benzamide], which IC50 (Recombinant TDO) is on record?
**A.** < 1000 nM

**Q.** What about the IC50 (CYP3A4) of the same compound?
**A.** > 10000 nM

**Q.** What about the IC50 (CYP2D6) of the same compound?
**A.** > 10000 nM

**Q.** What about the IC50 ([1]; read-out: IC50 on TDO in cells) of the same compound?
**A.** ≤ 500 nM and 200 to 500 nM

**Q.** What does the source list for `Cc1cc(C(=O)NCCCN(C)C)ccc1-c1c[nH]c2cc(F)ccc12` [Example 127, N-[3-(dimethylamino)propyl]-4-(6-fluoro-1H-indol-3-yl)-3-methyl-benzamide]?
**A.** IC50 (Recombinant TDO): < 1000 nM; IC50 (CYP3A4): > 10000 nM; IC50 (CYP2D6): > 10000 nM; IC50 ([1]; read-out: IC50 on TDO in cells): ≤ 500 nM and 200 to 500 nM

**Q.** For `NC(=O)CNC(=O)c1ccc(-c2c[nH]c3cc(F)ccc23)cc1` [Example 112, N-(2-amino-2-oxo-ethyl)-4-(6-fluoro-1H-indol-3-yl)benzamide], which IC50 (Recombinant TDO) is on record?
**A.** < 1000 nM

**Q.** And the IC50 (CYP3A4)?
**A.** > 10000 nM

**Q.** And the IC50 (CYP2D6)?
**A.** > 10000 nM

**Q.** And the IC50 ([1]; read-out: IC50 on TDO in cells)?
**A.** ≤ 500 nM and 200 to 500 nM

**Q.** How did the IC50 (Recombinant TDO) turn out when `COc1cc(-c2c[nH]c3cc(F)ccc23)ccc1C(=O)N[C@H](C)CO` [Example 111, 4-(6-Fluoro-1H-indol-3-yl)-N-[(1R)-2-hydroxy-1-methyl-ethyl]-2-methoxy-benzamide] was run?
**A.** 1000 to 5000 nM

**Q.** What about the IC50 (CYP3A4) of the same compound?
**A.** > 10000 nM

**Q.** And the IC50 (CYP2D6)?
**A.** > 10000 nM

**Q.** And the IC50 ([1]; read-out: IC50 on TDO in cells)?
**A.** ≤ 500 nM and 200 to 500 nM

**Q.** What does the source list for `C[C@H](CO)NC(=O)c1c(F)cc(-c2c[nH]c3cc(F)ccc23)cc1F` [Example 56, 2,6-Difluoro-4-(6-fluoro-1H-indol-3-yl)-N-[(1R)-2-hydroxy-1-methyl-ethyl]benzamide]?
**A.** IC50 (Recombinant TDO): < 1000 nM; IC50 (CYP3A4): > 10000 nM; IC50 (CYP2D6): > 10000 nM; IC50 ([1]; read-out: IC50 on TDO in cells): ≤ 500 nM and 200 to 500 nM
